Results reported in US20150166533A1, “NOVEL 1,3-DIHYDRO-2H-BENZIMIDAZOL-2-ONE DERIVATIVES SUBSTITUTED WITH BENZIMIDAZOLES AS RESPIRATORY SYNCYTIAL VIRUS ANTIVIRAL AGENTS” (Janssen R&D Ireland, priority 2012, published 2015).
pEC50: −log10 of the molar value. Like-named read-outs stand apart in the source and are kept apart here.

Experiments:
rgRSV224 virus = test: Antiviral activity: inhibition of rgRSV224 replication (GFP expression) in HeLa cells; type: cell-based, respiratory syncytial virus (RSV); details: read-out: WT activity EC50
Procedure: Black 96-well clear-bottom microtiter plates (Corning, Amsterdam, The Netherlands) were filled in duplicate using a customized robot system with serial 4-fold dilutions of compound in a final volume of 50 μl culture medium [RPMI medium without phenol red, 10% FBS, 0.04% gentamycin (50 mg/ml) and 0.5% DMSO]. Then, 100 μl of a HeLa cell suspension (5×10^4 cells/ml) in culture medium was added to each well followed by the addition of 50 μl rgRSV224 (MOI=0.02) virus in culture medium using a multidrop dispenser (Thermo Scientific, Erembodegem, Belgium). rgRSV224 virus is an engineered virus that includes an additional GFP gene (Hallak et al, 2000) and was in-licensed from the NIH (Bethesda, Md., USA). Medium, virus- and mock-infected controls were included in each test. Cells were incubated at 37° C. in a 5% CO2 atmosphere. Three days post-virus exposure, viral replication was quantified by measuring GFP expression in the cells by a MSM laser microscope (Tibotec, Beerse, Belgium).
(§1) The EC50 was defined as the 50% inhibitory concentration for GFP expression. In parallel, compounds were incubated for three days in a set of white 96-well microtitier plates (Corning) and the cytotoxicity of compounds in HeLa cells was determined by measuring the ATP content of the cells using the ATPlite kit (PerkinElmer, Zaventem, Belgium) according to the manufacturer's instructions. The CC50 was defined as the 50% concentration for cytotoxicity.
Compounds were tested for RSV inhibitory activity. The results are depicted in the Table below (n.d. means not determined): […]

HeLa cells = test: Cytotoxicity in HeLa cells, ATP content (ATPlite kit); type: cell-based; details: three days incubation, read-out: Tox CC50
Procedure: as §1

[1] = as above; type: cell-based; details: human, three days incubation, read-out: Tox CC50
Procedure: as §1

[2] = human respiratory syncytial virus, HeLa, 72 h

| Compound | pEC50 (rgRSV224 virus; rgRSV224 (MOI=0.02) in HeLa cells, GFP expression three days post-virus exposure) | CC50 (HeLa cells) [µM] | pEC50 (rgRSV224 virus; [2]) | CC50 at 3 days [1] [µM] | melting point [°C] |
| --- | --- | --- | --- | --- | --- |
| 3-((5-chloro-1-(4-fluorobutyl)-1H-benzo[d]imidazol-2-yl)methyl)-1-(tetrahydrofuran-3-yl)-1H-imidazo[4,5-c]pyridin-2(3H)-one [Compound P10] | 7.82 | > 100 |  |  |  |
| CC(C)(C)OC(=O)N1CC(n2c(=O)n(Cc3nc4cc(Cl)ccc4n3CCCS(C)(=O)=O)c3ccccc32)C1 [Compound P1, tert-butyl-3-(3-((5-chloro-1-(3-(methyl-sulfonyl)propyl)-1H-bezon[d]imidazol-2-yl)methyl)-2-oxo-2,3-dihydro-1H-imidazo[d]imidazol-1-yl)azetidine-1-carboxylate] |  |  | 9.17 | > 100 |  |
| CC(C)(C)n1c(=O)n(Cc2nc3cc(Cl)ccc3n2CCCS(C)(=O)=O)c2cnccc21 [Compound P2, 1-tert-butyl-3-((5-chloro-1-(3-(methyl-sulfonyl)propyl)-1H-benzo[d]imidazol-2-yl)methyl)-1H-imidazo[4,5-c]pyridin-2(3H)-one] |  |  | 9.41 | > 100 | 197 |
| CC1(n2c(=O)n(Cc3nc4cc(Cl)ccc4n3CCCS(C)(=O)=O)c3cnccc32)CC1 [Compound P3] |  |  | 9.60 | > 100 |  |
| O=c1n(Cc2nc3cc(Cl)ccc3n2CCCCF)c2cnccc2n1-c1ccc(F)cc1 [Compound P4, 3-((5-chloro-1-(4-fluorobutyl)-1H-benzo[d]imidazol-2-yl)methyl)-1-(4-fluorophenyl)-1H-imidazo[4,5-c]pyridin-2(3H)-one] |  |  | 9.52 | > 100 | 180 |
| COc1ccc(-n2c(=O)n(Cc3nc4cc(Cl)ccc4n3CCCCF)c3cnccc32)cc1 [Compound P5, 3-((5-chloro-1-(4-fluorobutyl)-1H-benzo[d]imidazol-2-yl)methyl)-1-(4-methoxyphenyl)-1H-imidazo[4,5-c]pyridin-2(3H)-one] |  |  | > 10.00 | > 100 | 167 |
| O=c1n(Cc2nc3cc(Cl)ccc3n2CCCCF)c2cnccc2n1-c1ccc(F)nc1 [Compound P6, 3-((5-chloro-1-(4-fluorobutyl)-1H-benzo[d]imidazol-2-yl)methyl)-1-(6-fluoropyridin-3-yl)-1H-imidazo[4,5-c]pyridin-2(3H)-one] |  |  | 9.10 | > 100 | 208 |
| COc1ccc(-n2c(=O)n(Cc3nc4cc(Cl)ccc4n3CCCS(C)(=O)=O)c3cnccc32)cc1 [Compound P7, 3-((5-chloro-1-(3-(methylsulfonyl)propyl)-1H-benzo[d]imidazol-2-yl)-methyl)-1-(4-methoxyphenyl)-1H-imidazo[4,5-c]pyridin-2(3H)-one] |  |  | 10.30 | > 100 | 250 |
| O=c1n(Cc2nc3cc(Cl)ccc3n2CCCCF)c2cnccc2n1-c1nccs1 [Compound P8, 3-((5-chloro-1-(4-fluororbutyl)-1H-benzo[d]imidazol-2-yl)methyl)-1-(thiazol-2-yl)-1H-imidazo[4,5-c]pyridin-2(3H)-one] |  |  | 9.72 | > 100 | 206 |
| O=c1n(Cc2nc3cc(Cl)ccc3n2CCCCF)c2cnccc2n1-c1ccc2ncccc2c1 [Compound P9, 3-((5-chloro-1-(4-fluororbutyl)-1H-benzo[d]imidazol-2-yl)methyl)-1-(quinolin-6-yl)-1H-imidazo[4,5-c]pyridin-2(3H)-one] |  |  | 9.60 | > 100 | 231 |
